These results are taken from patent US9346813B2, “Substituted pyrrolo[2,3-d]pyrimindines as CDK9 kinase inhibitors” (AbbVie Inc., priority 2014, dated 2016).

Experiment [1] addresses T1, CDK9/Cyclin T1 (Homo sapiens, UniProt P50750).
T1 construct: purchased Carna Biosciences 04-110
In words: CDK9 enzyme protocol (LANCE ULight TR-FRET kinase assay). In kind it is biochemical. The settings on record: 4 nM CDK9/Cyclin T1, 1000 μM ATP, 100 nM U-light MBP peptide, 30 minutes. In a few lines:
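Human CDK9/Cyclin T1 (4 nM) phosphorylated 100 nM ULight-MBP peptide at 1000 μM ATP for 30 min in HEPES/MgCl2/Triton buffer. The reaction was stopped with 20 mM EDTA plus 0.5 nM Eu anti-phospho-MBP antibody and equilibrated 1 h. Read-out was TR-FRET (ex 320, em 615/665 nm).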

For experiment [2], the system named is A431 cells. In words: Cell viability assay in A431 cells (Cell TiterGlo). In kind it is cell-based. The settings on record: Homo sapiens, A-431, 24 hours at 37° C. How it is done: Cell viability assays were performed using A431 or H929 cells. A431 cells were seeded in 96-well plates at 10,000 cells/well, and after overnight incubation, treated with compounds at 2-times the final concentration to result in a dose response of 3-fold dilutions from 10 μM to 0.0005 μM (50 μL/well, 0.1% final DMSO concentration). H929 cells were seeded in 96-well plates at 10,000 cells/well and treated immediately with compounds as described above. After 24 hours at 37° C., cell viability was measured using Cell TiterGlo reagent (Promega) with a luminescence reader. Alternately, cell viability assays were performed in 384-well format. A431 cells were seeded in 384-well plates at 2500 cells/well and, after overnight incubation, treated with compounds in a dose response of 3-fold dilutions from 10 μM to 0.0005 μM (25 nL/well, 0.1% final DMSO concentration). For the H929 viability assay, 25 nL/well of the compounds was dispensed into 384-well plates in a dose response as described above and cells were immediately seeded in 384-well plates at 2500 cells/well. After 24 hours at 37° C., cell viability was measured using Cell TiterGlo reagent (Promega) with a luminescence reader.
(In general: In ATP-based viability assays light output follows the ATP content of the culture.)

Experiment [3] concerns H929 cells. Description: Cell viability assay in H929 cells (Cell TiterGlo). In kind it is cell-based. To be noted: Homo sapiens, NCI-H929, 24 hours at 37° C. In a few lines: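 Cells seeded at 10,000 (96-well) or 2500 (384-well) cells/well; A431 dosed after overnight attachment, H929 dosed at seeding. 3-fold dilutions from 10 μM to 0.0005 μM, 0.1% final DMSO. Viability read by Cell TiterGlo luminescence after 24 hours at 37° C.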

T1 sequence (P50750 whole entry): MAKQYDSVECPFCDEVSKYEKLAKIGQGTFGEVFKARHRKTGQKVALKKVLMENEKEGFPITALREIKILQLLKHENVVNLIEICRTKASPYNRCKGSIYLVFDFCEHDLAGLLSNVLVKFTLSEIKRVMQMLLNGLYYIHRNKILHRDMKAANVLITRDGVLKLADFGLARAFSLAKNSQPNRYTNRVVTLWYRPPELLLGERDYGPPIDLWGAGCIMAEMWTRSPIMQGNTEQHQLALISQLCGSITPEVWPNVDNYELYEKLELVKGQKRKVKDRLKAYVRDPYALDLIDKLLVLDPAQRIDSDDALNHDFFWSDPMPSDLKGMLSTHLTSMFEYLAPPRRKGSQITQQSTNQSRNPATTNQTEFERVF
T1 sequence (O60563 whole entry partner): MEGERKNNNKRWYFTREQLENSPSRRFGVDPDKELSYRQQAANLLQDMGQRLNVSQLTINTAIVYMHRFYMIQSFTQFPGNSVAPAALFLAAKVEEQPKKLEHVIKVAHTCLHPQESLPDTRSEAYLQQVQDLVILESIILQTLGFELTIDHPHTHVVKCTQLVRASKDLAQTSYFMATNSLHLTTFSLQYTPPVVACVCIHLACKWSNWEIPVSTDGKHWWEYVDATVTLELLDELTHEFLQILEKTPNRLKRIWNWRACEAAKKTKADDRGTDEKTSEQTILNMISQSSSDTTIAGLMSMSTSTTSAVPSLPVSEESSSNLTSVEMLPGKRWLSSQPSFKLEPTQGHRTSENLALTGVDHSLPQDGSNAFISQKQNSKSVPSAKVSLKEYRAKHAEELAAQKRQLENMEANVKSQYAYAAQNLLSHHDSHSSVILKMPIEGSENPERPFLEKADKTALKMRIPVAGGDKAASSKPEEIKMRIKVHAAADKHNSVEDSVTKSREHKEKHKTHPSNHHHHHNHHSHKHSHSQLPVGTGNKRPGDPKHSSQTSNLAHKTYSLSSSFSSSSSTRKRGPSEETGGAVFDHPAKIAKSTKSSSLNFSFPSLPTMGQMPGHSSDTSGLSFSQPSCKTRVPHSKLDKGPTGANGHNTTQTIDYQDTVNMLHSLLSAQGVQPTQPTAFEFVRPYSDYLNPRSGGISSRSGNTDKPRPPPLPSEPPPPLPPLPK

`CNC(=O)N1CC=C(c2cc3c(-c4cc(F)ccc4OC)ncnc3[nH]2)CC1` [Example 17, 4-[4-(5-fluoro-2-methoxyphenyl)-7H-pyrrolo[2,3-d]pyrimidin-6-yl]-N-methyl-3,6-dihydropyridine-1(2H)-carboxamide]: the IC50 in experiment [1] was determined as 120 nM. Besides, the values for the EC50 in experiment [2] and in experiment [3] were 260 nM and 200 nM, respectively.
With `COc1ccc(F)cc1-c1ncnc2[nH]c(C3=CCN(CC(=O)N(C)C)CC3)cc12` [Example 80, 2-{4-[4-(5-fluoro-2-methoxyphenyl)-7H-pyrrolo[2,3-d]pyrimidin-6-yl]-3,6-dihydropyridin-1(2H)-yl}-N,N-dimethylacetamide], the EC50 is 130 nM in experiment [2] and 120 nM in experiment [3].
Take `COc1ccc(F)cc1-c1ncnc2[nH]c(C3CCNCC3)cc12` [Example 1, 4-(5-fluoro-2-methoxyphenyl)-6-(piperidin-4-yl)-7H-pyrrolo[2,3-d]pyrimidine]: in experiment [1], the midpoint of inhibition, the IC50, lay at 52 nM. For the same compound, in experiment [2], the EC50 was 100 nM.
On to `COc1ccc(F)cc1-c1ncnc2[nH]c(C3=CCN(Cc4ccc(NS(C)(=O)=O)cc4)CC3)cc12` [Example 81, N-[4-({4-[4-(5-fluoro-2-methoxyphenyl)-7H-pyrrolo[2,3-d]pyrimidin-6-yl]-3,6-dihydropyridin-1(2H)-yl}methyl)phenyl]methanesulfonamide], for which, in experiment [1], the IC50 worked out at 75 nM. For the same compound, the EC50 in experiment [2] was 110 nM; in experiment [3] it was 100 nM.
Taken in the same sequence, the figures for `COc1ccc(F)cc1-c1ncnc2[nH]c(C3=CCN(C(=O)CO)CC3)cc12` [Example 7, 1-{4-[4-(5-fluoro-2-methoxyphenyl)-7H-pyrrolo[2,3-d]pyrimidin-6-yl]-3,6-dihydropyridin-1(2H)-yl}-2-hydroxyethanone] were 37 nM, 150 nM and 180 nM.
The corresponding values for `COc1ccc(F)cc1-c1ncnc2[nH]c(C3=CCN(Cc4ccc(C(=O)O)cc4)CC3)cc12` [Example 72, 4-({4-[4-(5-fluoro-2-methoxyphenyl)-7H-pyrrolo[2,3-d]pyrimidin-6-yl]-3,6-dihydropyridin-1(2H)-yl}methyl)benzoic acid] are 110 nM, 5200 nM and 2400 nM.
`Fc1ccc(NCc2ccccc2)cc1-c1ncnc2[nH]c(C3CCNCC3)cc12` [Example 9, N-benzyl-4-fluoro-3-[6-(piperidin-4-yl)-7H-pyrrolo[2,3-d]pyrimidin-4-yl]aniline] registered an IC50 in experiment [1] of 72 nM. In experiment [2], this compound yielded an EC50 of 120 nM.
In experiment [1], `COCC(=O)N1CC=C(c2cc3c(-c4cc(F)ccc4OC)ncnc3[nH]2)CC1` [Example 18, 1-{4-[4-(5-fluoro-2-methoxyphenyl)-7H-pyrrolo[2,3-d]pyrimidin-6-yl]-3,6-dihydropyridin-1(2H)-yl}-2-methoxyethanone] had an IC50 of 130 nM. In experiment [3], this compound registered an EC50 of 400 nM.
Taken in the same sequence, the figures for `COc1ccc(F)cc1-c1ncnc2[nH]c(C3=CCN(C(=O)[C@H]4CC[C@H](C(=O)OC)CC4)CC3)cc12` [Example 73, methyl trans-4-({4-[4-(5-fluoro-2-methoxyphenyl)-7H-pyrrolo[2,3-d]pyrimidin-6-yl]-3,6-dihydropyridin-1(2H)-yl}carbonyl)cyclohexanecarboxylate] were 70 nM and 150 nM.
On to `COc1ccc(F)cc1-c1ncnc2[nH]c(C3=CCNCC3)cc12` [Example 3, 4-(5-fluoro-2-methoxyphenyl)-6-(1,2,3,6-tetrahydropyridin-4-yl)-7H-pyrrolo[2,3-d]pyrimidine], for which the EC50 in experiment [2] turned out to be 32 nM; in experiment [3], 200 nM.
In experiment [1], `COc1ccc(F)cc1-c1ncnc2[nH]c(C3=CCN(Cc4ccc(N)cc4)CC3)cc12` [Example 70, 4-({4-[4-(5-fluoro-2-methoxyphenyl)-7H-pyrrolo[2,3-d]pyrimidin-6-yl]-3,6-dihydropyridin-1(2H)-yl}methyl)aniline] showed an IC50 of 91 nM. This compound also returned a half-maximal effective concentration (EC50) in experiment [3] of 160 nM.
In the case of `COc1ccc(F)cc1-c1ncnc2[nH]c(C3=CCN(Cc4ccccc4)CC3)cc12` [Example 21, 6-(1-benzyl-1,2,3,6-tetrahydropyridin-4-yl)-4-(5-fluoro-2-methoxyphenyl)-7H-pyrrolo[2,3-d]pyrimidine], in experiment [1], the IC50 came out at 35 nM. In experiment [3], this compound came in with an EC50 of 440 nM.
The corresponding values for `COc1ccc(F)cc1-c1ncnc2[nH]c(C3=CCN(Cc4cc(F)cc(F)c4)CC3)cc12` [Example 36, 6-[1-(3,5-difluorobenzyl)-1,2,3,6-tetrahydropyridin-4-yl]-4-(5-fluoro-2-methoxyphenyl)-7H-pyrrolo[2,3-d]pyrimidine] are 170 nM and 1000 nM.

One may read the IC50 as the concentration that gives 50% inhibition. Broadly, the EC50 is the concentration that produces a half-maximal response. Read a high EC50 as a less potent agent.
